Measured values: PubChem BioAssay AID1259411 (Chemical Carcinogenesis Research Information System (CCRIS), 2018)
The source made the active and inactive calls. No rule for the calls is given here.

Tested on: rodent carcinogenicity bioassays, tumor incidence
Test: CCRIS carcinogenicity studies
How it was run: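 Archive of carcinogenicity, mutagenicity, tumor promotion and tumor inhibition results drawn from journals, NCI reports and other sources, expert-reviewed; covers 1985-2011 and is no longer updated.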

Structure (SMILES): ClCCl
- carcinogen call (Species: HAMSTER, Strain/Sex: SYRIAN/FEMALE, Route: INHALATION, Dose: 0, 500, 1500, 3500 PPM IN AIR 6H/D 5D/WK FOR 104 WK (STUDY DURATION: 2 YR), Dose: 0, 500, 1500, 3500 PPM IN AIR 6H/D 5D/WK FOR 104 WK (STUDY DURATION: 2 YR)): inactive; negative
- carcinogen call (Species: HAMSTER, Strain/Sex: SYRIAN/MALE, Route: INHALATION, Dose: 0, 500, 1500, 3500 PPM IN AIR 6H/D 5D/WK FOR 104 WK (STUDY DURATION: 2 YR), Dose: 0, 500, 1500, 3500 PPM IN AIR 6H/D 5D/WK FOR 104 WK (STUDY DURATION: 2 YR)): inactive; negative
- carcinogen call (Species: MOUSE, Strain/Sex: B6C3F1/FEMALE, Route: INHALATION, Dose: 0, 2000, 4000 PPM 6 HR/D, 5 D/WK FOR 102 WK, Dose: 0, 2000, 4000 PPM 6 HR/D, 5 D/WK FOR 102 WK, Tumor Site: Type of Lesion: LUNG: ALVEOLAR/BRONCHIOLAR ADENOMA, ALVEOLAR/BRONCHIOLAR CARCINOMA, LIVER: HEPATOCELLULAR ADENOMA, HEPATOCELLULAR CARCIN): active; positive
- carcinogen call (Species: MOUSE, Strain/Sex: B6C3F1/FEMALE, Route: INHALATION, Dose: 0, 2000 PPM 6 HR/D 5 D/WK FOR 26 WK FOLLOWED BY CHAMBER AIR EXPOSURE FOR 78 WK (STUDY DURATION: 104 WK), Tumor Site: Type of Lesion: LUNG: ADENOMA OR CARCINOMA): active; positive
- carcinogen call (Species: MOUSE, Strain/Sex: B6C3F1/FEMALE, Route: INHALATION, Dose: 0, 2000 PPM 6 HR/D 5 D/WK FOR 26 WK FOLLOWING A 78 WK EXPOSURE TO CHAMBER AIR (STUDY DURATION: 104 WK)): inactive; negative
- carcinogen call (Species: MOUSE, Strain/Sex: B6C3F1/FEMALE, Route: INHALATION, Dose: 0, 2000 PPM 6 HR/D 5 D/WK FOR 52 WK FOLLOWED BY CHAMBER AIR EXPOSURE FOR 52 WK (STUDY DURATION: 104 WK), Tumor Site: Type of Lesion: LUNG: ADENOMA OR CARCINOMA, LIVER: ADENOMA OR CARCINOMA): active; positive
- carcinogen call (Species: MOUSE, Strain/Sex: B6C3F1/FEMALE, Route: INHALATION, Dose: 0, 2000 PPM 6 HR/D 5 D/WK FOR 52 WK FOLLOWING A 52 WK EXPOSURE TO CHAMBER AIR (STUDY DURATION: 104 WK)): inactive; negative
- carcinogen call (Species: MOUSE, Strain/Sex: B6C3F1/FEMALE, Route: INHALATION, Dose: 0, 2000 PPM 6 HR/D 5 D/WK FOR 78 WK FOLLOWED BY CHAMBER AIR EXPOSURE FOR 26 WK (STUDY DURATION: 104 WK), Tumor Site: Type of Lesion: LUNG: ADENOMA OR CARCINOMA, LIVER: ADENOMA OR CARCINOMA): active; positive
- carcinogen call (Species: MOUSE, Strain/Sex: B6C3F1/FEMALE, Route: INHALATION, Dose: 0, 2000 PPM 6 HR/D 5 D/WK FOR 78 WK FOLLOWING A 26 WK EXPOSURE TO CHAMBER AIR (STUDY DURATION: 104 WK), Tumor Site: Type of Lesion: LUNG: ADENOMA OR CARCINOMA, LIVER: ADENOMA OR CARCINOMA): active; positive
- carcinogen call (Species: MOUSE, Strain/Sex: B6C3F1/FEMALE, Route: INHALATION, Dose: 0, 2000 PPM 6 HR/D 5 D/WK FOR 104 WK (STUDY DURATION: 104 WK), Tumor Site: Type of Lesion: LIVER: ADENOMA, CARCINOMA, LUNG: ADENOMA, CARCINOMA): active; positive
- carcinogen call (Species: MOUSE, Strain/Sex: B6C3F1/FEMALE, Route: INHALATION, Dose: 0, 2000 PPM 6 HR/D 5 D/WK FOR 104 WK (STUDY DURATION: 104 WK), Tumor Site: Type of Lesion: LUNG: ADENOMA OR CARCINOMA, LIVER: ADENOMA OR CARCINOMA): active; positive
- carcinogen call (Species: MOUSE, Strain/Sex: B6C3F1/MALE, Route: INHALATION, Dose: 0, 2000, 4000 PPM 6 HR/D, 5 D/WK FOR 102 WK, Dose: 0, 2000, 4000 PPM 6 HR/D, 5 D/WK FOR 102 WK, Tumor Site: Type of Lesion: LUNG: ALVEOLAR/BRONCHIOLAR ADENOMA, ALVEOLAR/BRONCHIOLAR CARCINOMA, LIVER: HEPATOCELLULAR ADENOMA, HEPATOCELLULAR CARCIN): active; positive
- carcinogen call (Species: MOUSE, Strain/Sex: SWISS/FEMALE, Route: GAVAGE, Dose: 0, 100, 500 MG/KG IN OLIVE OIL 1/D 5 D/WK FOR 64 WK (STUDY DURATION: LIFETIME), Dose: 0, 100, 500 MG/KG IN OLIVE OIL 1/D 5 D/WK FOR 64 WK (STUDY DURATION: LIFETIME)): inactive; negative
- carcinogen call (Species: RAT, Strain/Sex: F344/FEMALE, Route: INHALATION, Dose: 0, 1000, 2000, 4000 PPM 6 HR/D, 5 D/WK FOR 102 WK, Dose: 0, 1000, 2000, 4000 PPM 6 HR/D, 5 D/WK FOR 102 WK, Tumor Site: Type of Lesion: MAMMARY GLAND: FIBROADENOMA, ADENOMA OR FIBROADENOMA, HEMATOPOIETIC SYSTEM (LEUKEMIA): MONONUCLEAR CELL LEUKEMIA): active; positive
- carcinogen call (Species: RAT, Strain/Sex: F344/MALE, Route: INHALATION, Dose: 0, 1000, 2000, 4000 PPM 6 HR/D, 5 D/WK FOR 102 WK, Dose: 0, 1000, 2000, 4000 PPM 6 HR/D, 5 D/WK FOR 102 WK, Tumor Site: Type of Lesion: MAMMARY GLAND: FIBROADENOMA, ADENOMA OR FIBROADENOMA, TUNICA VAGINALIS: MESOTHELIOMA, MULTIPLE SITES: MESOTHELIOMA, Tumor Site: Type of Lesion: MAMMARY GLAND: FIBROADENOMA, ADENOMA OR FIBROADENOMA, TUNICA VAGINALIS: MESOTHELIOMA, MULTIPLE SITES: MESOTHELIOMA): active; positive
- carcinogen call (Species: RAT, Strain/Sex: SPRAGUE-DAWLEY/FEMALE, Route: GAVAGE, Dose: 0, 100, 500 MG/KG IN OLIVE OIL 1/D 5 D/WK FOR 64 WK (STUDY DURATION: LIFETIME), Dose: 0, 100, 500 MG/KG IN OLIVE OIL 1/D 5 D/WK FOR 64 WK (STUDY DURATION: LIFETIME)): inactive; negative
- carcinogen call (Species: RAT, Strain/Sex: SPRAGUE-DAWLEY/FEMALE, Route: INHALATION, Dose: 0, 100 PPM 4 HR/D 5 D/WK FOR 7 WK THEN 7 HR/D 5 D/WK FOR 97 WK BEGINNING WHEN RATS WERE 12 DAY OLD EMBRYOS (STUDY DURATI): inactive; negative
- carcinogen call (Species: RAT, Strain/Sex: SPRAGUE-DAWLEY/FEMALE, Route: INHALATION, Dose: 0, 500, 1500, 3500 PPM IN AIR 6H/D 5D/WK FOR 104 WK (STUDY DURATION: 2 YR), Dose: 0, 500, 1500, 3500 PPM IN AIR 6H/D 5D/WK FOR 104 WK (STUDY DURATION: 2 YR)): inactive; negative
- carcinogen call (Species: RAT, Strain/Sex: SPRAGUE-DAWLEY/MALE, Route: GAVAGE, Dose: 0, 100, 500 MG/KG IN OLIVE OIL 1/D 5 D/WK FOR 64 WK (STUDY DURATION: LIFETIME), Dose: 0, 100, 500 MG/KG IN OLIVE OIL 1/D 5 D/WK FOR 64 WK (STUDY DURATION: LIFETIME)): inactive; negative
- carcinogen call (Species: RAT, Strain/Sex: SPRAGUE-DAWLEY/MALE, Route: INHALATION, Dose: 0, 100 PPM 4 HR/D 5 D/WK FOR 7 WK THEN 7 HR/D 5 D/WK FOR 97 WK BEGINNING WHEN RATS WERE 12 DAY OLD EMBRYOS (STUDY DURATI): inactive; negative
- carcinogen call (Species: RAT, Strain/Sex: SPRAGUE-DAWLEY/MALE, Route: INHALATION, Dose: 0, 500, 1500, 3500 PPM IN AIR 6H/D 5D/WK FOR 104 WK (STUDY DURATION: 2 YR), Dose: 0, 500, 1500, 3500 PPM IN AIR 6H/D 5D/WK FOR 104 WK (STUDY DURATION: 2 YR), Tumor Site: Type of Lesion: SALIVARY GLAND: SARCOMA): active; positive

Structure (SMILES): CCCI
- carcinogen call (Species: MOUSE, Route: INTRAPERITONEAL, Tumor Site: Type of Lesion: LUNG): active; positive

Structure (SMILES): Nc1cccc2ccccc12
- carcinogen call (Species: DOG, Strain/Sex: BEAGLE/FEMALE, Route: ORAL, Dose: 22.0 MG/KG 5/WK): inactive; negative
- carcinogen call (Species: DOG, Strain/Sex: BEAGLE/MALE, Route: ORAL, Dose: 18.4 MG/KG 5/WK): inactive; negative

Structure (SMILES): CCCCCCCC/C=C\CCCCCCCC(=O)O
- carcinogen call (Species: MOUSE, Strain/Sex: B6C3F1/FEMALE, Route: ORAL, Dose: 0, 0.25, 1.0% IN DRINKING WATER FOR 96 WK (STUDY DURATION: 104 WK), Dose: 0, 0.25, 1.0% IN DRINKING WATER FOR 96 WK (STUDY DURATION: 104 WK)): inactive; negative
- carcinogen call (Species: MOUSE, Strain/Sex: B6C3F1/MALE, Route: ORAL, Dose: 0, 0.25, 1.0% IN DRINKING WATER FOR 96 WK (STUDY DURATION: 104 WK), Dose: 0, 0.25, 1.0% IN DRINKING WATER FOR 96 WK (STUDY DURATION: 104 WK)): inactive; negative
- carcinogen call (Species: RAT, Strain/Sex: F344/FEMALE, Route: ORAL, Dose: 0, 2.5, 5% IN DRINKING WATER FOR 108 WK (STUDY DURATION: 2 YR), Dose: 0, 2.5, 5% IN DRINKING WATER FOR 108 WK (STUDY DURATION: 2 YR)): inactive; negative
- carcinogen call (Species: RAT, Strain/Sex: F344/MALE, Route: ORAL, Dose: 0, 2.5, 5% IN DRINKING WATER FOR 108 WK (STUDY DURATION: 2 YR), Dose: 0, 2.5, 5% IN DRINKING WATER FOR 108 WK (STUDY DURATION: 2 YR)): inactive; negative
